# Reference: patent US20130261142A1, “COMPOUNDS USED FOR TREATING CANCER AND THE USE THEREOF” (priority 2010, published 2013)
# Entries after “also recorded” stand apart in the source; their conditions may differ. Structures can show the parent of a compound that is named as a salt.
# What was measured:
# MCF-7 SPS cells [1] = test: LOPAC compounds tested on MCF-7 SPS cells (Table 2); settings: Compounds that inhibit cancer stem cells, 3 μM stated for Niclosamide
# Description: The morphology and number of the spheroids were further analyzed by software image pro plus.
# CP70 cells = test: Cytotoxicity on CP70 (OVCA) cells
# [2] = test system: OVCICs sps cells collected from ovarian cancer patient(s); test: Patients' OVCA specimen-derived cells (pdOVCICs / OVCICs sps), MTS assay; format: cell-based, human; settings: in vitro
# Description: A total of 5000 pdOVCICs were seeded onto each well in 96-well plates and each plate was treated with different concentrations of Niclosamide in duplicates for 3 days. The vitality of pdOVCICs cells was measured by MTS assay.
# OVCA sps cells = test: LOPAC compounds tested on OVCA sps cells, MTS / ATP-based assay (Table 3); format: cell-based; settings: proliferation and differentiation
# Description: CP70 sps cells were seeded in a 96-well culture plate (1×10^3 cells/well) and cultured for 24 hr, and then treated with 30 μM of various compounds selected from the LOPAC database. Following 3-day treatment, the vitality of the treated cells was measured by CellTiter-Glo® Luminescent Cell Vitality Assay kit (Promega) according to the manufacturer's instructions.
# (§1) The vitality of the treated cells was measured by MTS assay using MTS-based CellTiter 96 aqueous non-radioactive cell proliferation assay kit (Promega) according to the manufacturer's instructions.
# CP70 sps cells = test: Cytotoxicity / vitality of CP70 sps cells (MTS assay); settings: for inhibition / cytotoxicity effect on CP70 sps (OVCA sps) cells: 3 μM, MTS assay
# Description: as §1
# The vitality of the CP70 sps cells was measured by MTS assay. For preclinical test, two groups with five mice each were i.p. injected with 1×10^4 of CP70 sps cells alone or followed by Niclosamide treatment (10 mg/kg/daily) from day 1 to day 47, respectively. The body weights of the two groups of mice were monitored every 3 days during day 36 to day 48. After 48 days, the mice were sacrificed to examine the tumor nodules formation in the abdominal cavity.
# MCF-7 SPS cells [3] = test: Toxicity of Paclitaxol on MCF-7 sps cells; format: cell-based
# Text: (§2) Next, we compared the toxicity effects of the anti-cancer drug, Paclitaxol, on MCF-7 cells, MCF-7 SPS cells, MDA-MB 231 cells and MDA-MB 231 SPS.
# MCF-7 cells = test: Toxicity of Paclitaxol on MCF-7 cells; format: cell-based
# Text: as §2
# shh = test: Signaling inhibitors on MCF-7 SPS cells: shh; format: cell-based; settings: 30 μM, 3 days
# Text: Moreover, MCF-7 SPS cells were affected by the expression of Wnt, NOTCH and shh which caused morphological changes. […] Based on the aforementioned experiments, MCF-7 SPS cells contain cancer stem cells that can undergo further differentiation (FIG. 5B).
# [4] = Cisplatin treatment, FIGS. 10A-10C
Compound,Cancer cell survival (%) (MCF-7 SPS cells [1]),Cancer cell survival (%) (OVCA sps cells),also measured
CCCCCCCCCCCCCCCC(=O)OC(CC(=O)O)C[N+](C)(C)C.[Cl-] (racemic) [Palmitoyl-DL-Carnitine chloride],9.7,,
"CCn1cnc2c(Nc3cccc(Cl)c3)nc(N[C@@H]3CCCC[C@@H]3N)nc21.Cl (relative stereo) [CGP-74514A hydrochloride, N2-(cis-2-Aminocyclohexyl)-N6-(3-chlorophenyl)-9-ethyl-9H-purine-2,6-diamine hydrochloride]",10,,
"O.c1cnc2c(c1)ccc1cccnc12 [1,10-Phenanthroline monohydrate]",7,,
N#Cc1c(-c2ccccc2)no[n+]1[O-] [4-Phenyl-3-furoxancarbonitrile],1.1,,
"O=Nc1ccc2oc(=O)ccc2c1 [6-Nitroso-1,2-benzopyrone]",1.5,,
CC(C)(C)[C@]1(O)CCN2Cc3cccc4c3[C@H](c3ccccc3CC4)[C@@H]2C1.Cl [(+)-Butaclamol hydrochloride],,42.81,"cytotoxicity effect on CP70 (OVCA) cells (CP70 cells; 3 μM, hydrochloride): can kill; also recorded: toxic; differentiation and growth of ovarian cancer cells [2]: successfully inhibited; inhibition / cytotoxicity effect on CP70 sps (OVCA sps) cells (CP70 sps cells; hydrochloride): can kill; also recorded: significant inhibition effect; inhibition / cytotoxicity effect on CP70 sps (OVCA sps) cells (CP70 sps cells; listed as (+)-butaclamol hydrochloride, hydrochloride): significant inhibition effects; numbers of ovarian cancer stem cells in CP70 SPS cell culture in vitro (CP70 sps cells; FIG. 14 / FIG. 15): inhibited"
CC[C@@]1(O)C(=O)OCc2c1cc1n(c2=O)Cc2cc3ccccc3nc2-1 [(S)-(+)-Camptothecin],8.2,39.11,
N.S=C(S)N1CCCC1 [Ammonium pyrrolidinedithiocarbamate],4.4,,
"O=C1Nc2cc(Br)ccc2/C1=C1/Nc2ccccc2/C1=N\O [BIO, (2′Z,3′E)-6-Bromoindirubin-3′-oxime]",2.4,,
"CC(C)(C)c1ccc(S(=O)(=O)/C=C/C#N)cc1 [Bay 11-7085, (E)3-((4-t-Butylphenyl)sulfonyl)-2-propenenitrile]",4,,
"CN1CCN(c2nc3cc(C(F)(F)F)ccc3n3cccc23)CC1.O=C(O)/C=C\C(=O)O [CGS-12066A maleate, 7-Trifluoromethyl-4-(4-methyl-1-piperazinyl)pyrrolo-[1,2-a]quinoxaline maleate salt]",16.3,,
"Brc1c(Br)c(Br)c2[nH]cnc2c1Br [CK2 Inhibitor 2, 4,5,6,7-tetrabromobenzimidazole]",8.3,,
CNc1ccc2oc(C[C@H]3O[C@@]4(CC[C@H]3C)O[C@H]([C@H](C)C(=O)c3ccc[nH]3)[C@H](C)C[C@H]4C)nc2c1C(=O)O [Calcimycin],,42.70,
"Clc1ccc(C(c2ccc(Cl)cc2)n2cc[n+](CC(OCc3ccc(Cl)cc3Cl)c3ccc(Cl)cc3Cl)c2)cc1.[Cl-] (centres unmarked) [Calmidazolium chloride, 1-[bis(4-Chlorophenyl)methyl]-3-[2-(2,4-dichlorophenyl)-2-(2,4-dichlorobenzyloxy)ethyl]-1H-imidazolium chloride]",3.9,,
COc1ccc2c(c[n+](C)c3c4cc5c(cc4ccc23)OCO5)c1OC [Chelerythrine chloride],9.9,,
N.N.[Cl][Pt][Cl] [Cisplatin],,,inhibition of CP70 cells (CP70 cells; [4]): inhibited; inhibition of CP70 sps cells (CP70 sps cells; [4]): inhibited
Cc1cc(N)c2ccccc2[n+]1CCCCCCCCCC[n+]1c(C)cc(N)c2ccccc21 [Dequalinium dichloride],,54.68,
C[C@@H]1O[C@@H](O[C@H]2C[C@@H](O)[C@]3(CO)[C@H]4[C@H](O)C[C@]5(C)[C@@H]([C@@H]6COC(=O)C6)CC[C@]5(O)[C@@H]4CC[C@]3(O)C2)[C@H](O)[C@H](O)[C@H]1O [Dihydroouabain],9.1,45.97,

Compound,Cancer cell survival (%) (MCF-7 SPS cells [1]),Cancer cell survival (%) (OVCA sps cells),also measured
c1ccc2c(c1)[I+]c1ccccc1-2 [Diphenyleneiodonium chloride],,31.37,
CC[C@H]1CN2CCc3cc(OC)c(OC)cc3[C@@H]2C[C@@H]1C[C@H]1NCCc2cc(OC)c(OC)cc21 [Emetine dihydrochloride hydrate],7.3,49.13,
"COc1ccc(NC(=O)c2ccc(-c3ccc(-c4noc(C)n4)cc3C)cc2)cc1N1CCN(C)CC1.Cl.O [GR 127935 hydrochloride, N-[4-Methoxy-3-(4-methyl-1-piperazinyl)phenyl]-2′-methyl-4′-(5-methyl-1,2,4-oxadiazol-3-yl)-1,1′-biphenyl-4-carboxamide hydro chloride hydrate]",2.8,,
O=C1c2c(O)ccc(O)c2C(=O)c2c(NCCNCCO)ccc(NCCNCCO)c21 [Mitoxantrone],5.2,,
C[C@@H]1O[C@@H](O[C@H]2C[C@@H](O)[C@]3(CO)[C@H]4[C@H](O)C[C@]5(C)[C@@H](C6=CC(=O)OC6)CC[C@]5(O)[C@@H]4CC[C@]3(O)C2)[C@H](O)[C@H](O)[C@H]1O [Ouabain],1.8,26.69,
CC(=O)O[C@H]1C(=O)[C@@]2(C)[C@H]([C@H](OC(=O)c3ccccc3)[C@]3(O)C[C@H](OC(=O)[C@H](O)[C@@H](NC(=O)c4ccccc4)c4ccccc4)C(C)=C1C3(C)C)[C@]1(OC(C)=O)CO[C@@H]1C[C@@H]2O [Paclitaxol],,,toxicity effect on MCF-7 sps cells (MCF-7 SPS cells [3]): no effect; toxicity effect on MCF-7 cells (MCF-7 cells): notably inhibited
COc1cc2nc(N3CCN(C(=O)c4ccco4)CC3)nc(N)c2cc1OC [Prazosin hydrochloride],1.1,,
C=CC1=C(C)c2cc3[nH]c(cc4nc(cc5[nH]c(cc1n2)c(C)c5CCC(=O)O)C(CCC(=O)O)=C4C)c(C)c3C=C [Protoporphyrin IX disodium],1.8,34.75,
CCN(CC)CCCC(C)Nc1c2ccc(Cl)cc2nc2ccc(OC)cc12 (centres unmarked) [Quinacrine dihydrochloride],3.8,,
CC1=C(/C=C/C(C)=C/C=C/C(C)=C/C(=O)Nc2ccc(O)cc2)C(C)(C)CCC1 [Retinoic acid p-hydroxyanilide],13,,
CC(=O)c1c(O)c(C)c(O)c(Cc2c(O)c3c(c(C(=O)/C=C/c4ccccc4)c2O)OC(C)(C)C=C3)c1O [Rottlerin],,38.89,inhibition / cytotoxicity effect on CP70 sps (OVCA sps) cells (CP70 sps cells): significant inhibition effect; also recorded: toxic
"COc1ccc2c(c1)/C(=C/c1cnc[nH]1)C(=O)N2 [SU 9516, 3-[1-(3H-Imidazol-4-yl)-meth-(Z)-ylidene]-5-methoxy-1,3-dihydro-indol-2-one]",10.7,,
C[n+]1cc2c3c(ccc2c2ccc4cc5c(cc4c21)OCO5)OCO3 [Sanguinarine chloride],,20.37,
CCN(CC)C(=S)SSC(=S)N(CC)CC [Tetraethylthiuram disulfide],10.18,,
"CC1(C)CCC2=C(O1)c1ccccc1C(=O)C2=O [beta-Lapachone, 3,4-Dihydro-2,2-Dimethyl-2H-Naphtho[1,2-B] Pyran-5,6-Dione]",1.67,,
CC1=C2C[C@H]3[C@@H](CC=C4C[C@@H](O)CC[C@@]43C)[C@@H]2CC[C@]12O[C@@H]1C[C@H](C)CN[C@H]1[C@H]2C [cyclopamide],,,expression of shh (shh): inhibited
CC1CCCC=CC2CC(O)CC2C(O)C=CC(=O)O1 (centres unmarked) [γ-4-Dihydroxy-2-(6-hydroxy-1-heptenyl)-4-cyclopentanecrotonic acid λ-lactone],6.6,41.18,
Vinblastine sulfate salt,,64.6,
